Measured values from patent US20260209219A1, “SUBSTITUTED TETRAHYDROPYRROLO-PYRIDINONE COMPOUNDS AND THEIR USE IN TREATING MEDICAL CONDITIONS” (Karuna Therapeutics, Inc., priority 2022, published 2026).

How the values were obtained:
rM4 receptors = target: T1, rM4 receptors (Rattus norvegicus, UniProt P08485); test: Rat M4 PAM pERK assay; type: cell-based; details: CHO cells expressing rM4; with EC20 of acetylcholine (10 nM final)
T1 construct: expressed in transfected cells; host or cells: CHO cells
T1 sequence (P08485 1-478): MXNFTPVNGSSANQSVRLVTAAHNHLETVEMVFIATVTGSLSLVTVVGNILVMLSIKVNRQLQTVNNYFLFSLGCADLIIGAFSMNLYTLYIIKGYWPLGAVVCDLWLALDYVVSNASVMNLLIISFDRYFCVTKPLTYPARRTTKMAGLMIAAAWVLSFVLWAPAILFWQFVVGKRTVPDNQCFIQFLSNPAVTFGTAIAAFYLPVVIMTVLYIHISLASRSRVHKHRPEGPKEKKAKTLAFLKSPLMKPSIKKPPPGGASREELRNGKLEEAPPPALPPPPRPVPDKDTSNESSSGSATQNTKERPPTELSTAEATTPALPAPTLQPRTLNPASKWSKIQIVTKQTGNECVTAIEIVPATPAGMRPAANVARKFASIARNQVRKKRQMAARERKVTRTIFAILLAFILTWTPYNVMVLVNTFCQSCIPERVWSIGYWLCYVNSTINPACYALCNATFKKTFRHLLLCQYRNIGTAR
Experimental: (§1) Chinese hamster ovary (CHO) cells expressing either hM4 or rM4 receptors were frozen in assay ready vials (5×10^6 cells/vial) after bulking-up in culture. The day before an assay, vial(s) were thawed and cells seeded in 384 well white proxiplates at 1000/well for hM4 cells and at 2000/well for rM4 cells, in 10 μL of growth media (Hams/F12 with glutamax and 10% FCS) and incubated overnight at 37° C./5% CO2.
(§2) On the following morning, the growth media was removed by ‘flicking out’ over a bin, patting the inverted plate onto tissue, and then replacing with 10 μL of wash media (Hams/F12 with glutamax and 8 mM HEPES, NB: serum free). Then, the wash media was removed in the same way and replaced with 8 μL/well of the serum free media. Plates were then re-incubated for a further 4 hours at 37° C./5% CO2.
(§3) Compounds for testing were solubilized to 10 mM in DMSO and compound addition plates, consisting of ten-point concentration response curves (CRC) in duplicate points (10 μM top concentration, ½ log dilution series), were prepared by acoustic dispensing and the compound management group.
(§4) After the 4-hour incubation in serum free media, a 4 μL aliquot of the 3× compound solution containing an EC20 of acetylcholine (10 nM final concentration) was added to the cell plate using a 384 well plate to plate transfer. Then, the plate lid was replaced, and the cells incubated for 5 mins at 37° C./5% CO2. Following this final incubation, all cellular processes were stopped by the addition of 4 μL/well of lysis and blocking buffer and plates were incubated for 30 minutes at RT on an orbital shaker (gentle setting). Then, a final addition of 4 μL/well of antibody detection mix, containing both the Europium-Cryptate (donor) and d2 (acceptor) tagged detection components, was added followed by a further 2-hour incubation at RT, and then the plate was read using a TR-FRET (time resolved fluorescence resonance energy transfer) based protocol.

human M4 receptor = target: T2, human M4 receptor (Homo sapiens, UniProt P08173); test: M4 GTPγS PAM assay; type: biochemical; details: membranes of CHO-K1 cells stably expressing human M4; EC20 acetylcholine 40 nM
T2 construct: expressed in transfected cells; host or cells: CHO-K1 cells (membrane preparation)
T2 sequence (P08173 1-479): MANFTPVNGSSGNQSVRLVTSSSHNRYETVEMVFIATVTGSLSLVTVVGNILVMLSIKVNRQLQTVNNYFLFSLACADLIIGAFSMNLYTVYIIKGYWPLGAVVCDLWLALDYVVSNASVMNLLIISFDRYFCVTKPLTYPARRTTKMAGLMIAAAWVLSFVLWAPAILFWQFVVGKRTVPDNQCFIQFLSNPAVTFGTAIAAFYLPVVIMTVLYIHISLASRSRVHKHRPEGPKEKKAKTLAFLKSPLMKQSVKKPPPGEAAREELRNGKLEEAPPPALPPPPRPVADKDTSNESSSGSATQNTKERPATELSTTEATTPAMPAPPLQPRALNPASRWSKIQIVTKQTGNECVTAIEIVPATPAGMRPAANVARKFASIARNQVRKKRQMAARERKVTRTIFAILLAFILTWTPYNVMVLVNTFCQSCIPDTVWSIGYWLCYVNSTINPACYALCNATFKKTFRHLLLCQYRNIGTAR
Experimental: The M4 GTPγS PAM method was used. Membranes were prepared for GTPgS binding assays from CHO-K1 cells stably expressing human M4 receptor. Briefly, cells were grown in 5-layer cell culture flasks. Cells were washed with 50 mL of PBS and then dissociated with 0.05% trypsin. Dissociated cells were then collected by centrifugation at 650×g for 8 minutes at 4° C. Pellets were washed again in PBS by centrifugation and resuspended in 30 mL of 20 mM HEPES, 10 mM EDTA, pH 7.4. After sitting on ice for 30 min, membranes were collected by centrifugation at 50000×g for 15′ at 4° C., resuspended in 30 mL of 20 mM HEPES, 0.1 mM EDTA, pH 7.4 and collected again by centrifugation. Pellets were then washed twice by centrifugation in 30 mL of 20 mM HEPES, pH 7.4, and stored at −80° C. until the day of the assay. On the day of the assay, pellets were thawed on ice and resuspended in 1 mL of 20 mM HEPES, pH 7.4, 10 mM MgCl2, 100 mM NaCl using dounce homogenization. Membrane protein concentration is determined by BCA protein assay (Promega, Madison, WI) according to Promega guidelines.
On the day of the assay, serial dilutions of test PAM compounds were brought up in assay buffer (20 mM HEPES, 10 mM MgCl2, 100 mM NaCl) at 4× final assay concentration. […] of membrane homogenates (containing […] of membrane protein) were prepared in assay buffer supplemented with GDP at 4× final assay concentration (final assay concentration of GDP is 5 μM for M2 and 0.1 μM for M4) and dispensed into 96 well polypropylene, U-bottom Greiner plates. […] of vehicle or test PAM compound at 4× of final assay concentration diluted in the assay buffer were added to membrane and plates are incubated for 10-15 minutes at room temperature with gentle shaking. Then, […] of EC20 acetylcholine in assay buffer at 4× final assay concentration was added to assay plates (EC20 final assay concentrations was 40 nM for human M4).
Plates were then incubated, with shaking, for an additional 10-15 minutes. 25 mL of 0.4 nM ^35S-GTP (Perkin Elmer, Waltham, MA) in assay buffer was added to assay mixtures. The binding reaction is left on the shaker for 1 hour at room temperature. Membranes in assay reactions were then transferred to GF/C filter plates (Unifilter, Perkin Elmer) and washed three times using a FilterMate Harvester (Perkin Elmer) with cold assay buffer containing no GDP. Filter plates were then dried at 40° C. overnight followed by the addition of […] of Beta Plate Scintillation liquid. Plates are top and bottom sealed before being read on TopCount scintillation counter (Perkin Elmer, Waltham, MA).

hM4 receptors = target: T3, hM4 receptors (Homo sapiens, UniProt P08173); test: Human M4 PAM pERK assay; type: cell-based; details: CHO cells expressing hM4; with EC20 of acetylcholine (10 nM final)
T3 construct: expressed in transfected cells; host or cells: CHO cells
T3 sequence (P08173 1-479): T2 sequence (P08173 1-479)
Experimental: as §1, §2, §3, §4

SMILES	EC50 (rM4 receptors) [nM]	EC50 (human M4 receptor) [nM]	EC50 (hM4 receptors) [nM]
Cc1c2c(n(C)c(=O)c1C)CN(C(=O)C[C@@H]1C[C@H]1c1ccc(C(F)(F)F)cc1)C2 (relative stereo) [Compound I-18, 1,3,4-Trimethyl-6-([trans-2-(2-(4-(trifluoromethyl)phenyl)cyclopropyl)]acetyl)-1,5,6,7-tetrahydro-2H-pyrrolo[3,4-b]pyridin-2-one]	100 to 500	100 to 500	100 to 500
Cc1c2c(n(C)c(=O)c1Cl)CN(C(=O)C[C@@H]1C[C@H]1c1ccc(C(F)(F)F)cc1)C2 (relative stereo) [Compound I-31, 3-Chloro-1,4-dimethyl-6-([trans-2-(2-(4-(trifluoromethyl)phenyl)cyclopropyl)]acetyl)-1,5,6,7-tetrahydro-2H-pyrrolo[3,4-b]pyridin-2-one]	100 to 500	100 to 500	100 to 500
Cc1cc(=O)n(C)c2c1CN(C(=O)CC1CC1c1ccnc(C(F)(F)F)c1)C2 (single isomer, unassigned) [Compound I-1, 1,4-Dimethyl-6-[trans-(2-(2-(2-(trifluoromethyl)pyridin-4-yl)cyclopropyl)]acetyl)-1,5,6,7-tetrahydro-2H-pyrrolo[3,4-b]pyridin-2-one]	–	–	> 2000
Cc1cc(=O)n(C)c2c1CN(C(=O)CC1CC1c1ccnc(C(F)(F)F)c1)C2 (single isomer, unassigned) [Compound I-2]	500 to 2000	–	< 100
Cc1cc(=O)n(C)c2c1CN(C(=O)CC1CC1c1ccc(C(F)(F)F)nc1)C2 (single isomer, unassigned) [Compound I-4]	> 2000	> 2000	> 2000
Cc1cc(=O)n(C)c2c1CN(C(=O)CC1CC1c1ccc(C(F)(F)F)nc1)C2 (single isomer, unassigned) [Compound I-5]	< 100	500 to 2000	100 to 500
Cc1cc(=O)n(C)c2c1CN(C(=O)CC1CC1c1ccc(C(F)(F)F)cc1)C2 (single isomer, unassigned) [Compound I-6]	> 2000	> 2000	> 2000
Cc1cc(=O)n(C)c2c1CN(C(=O)CC1CC1c1ccc(S(=O)(=O)C(F)(F)F)cc1)C2 (single isomer, unassigned) [Compound I-8]	> 2000	–	> 2000
Cc1cc(=O)n(C)c2c1CN(C(=O)CC1CC1c1ccc(S(=O)(=O)C(F)(F)F)cc1)C2 (single isomer, unassigned) [Compound I-9]	100 to 500	–	100 to 500
Cc1cc(=O)n(C)c2c1CN(C(=O)CC1CC1c1cccc(C3COC3)c1)C2 (single isomer, unassigned) [Compound I-13]	> 2000	> 2000	> 2000
Cc1cc(=O)n(C)c2c1CN(C(=O)CC1CC1c1cccc(C3COC3)c1)C2 (single isomer, unassigned) [Compound I-14]	100 to 500	–	100 to 500
Cc1cc(=O)n(C)c2c1CN(C(=O)CC1CC1c1ccc(C3COC3)cc1)C2 (single isomer, unassigned) [Compound I-16]	> 2000	–	> 2000
Cc1cc(=O)n(C)c2c1CN(C(=O)CC1CC1c1ccc(C3COC3)cc1)C2 (single isomer, unassigned) [Compound I-17]	100 to 500	–	< 100
Cc1c2c(n(C)c(=O)c1C)CN(C(=O)CC1CC1c1ccc(C(F)(F)F)cc1)C2 (single isomer, unassigned) [Compound I-19]	> 2000	–	> 2000
Cc1c2c(n(C)c(=O)c1C)CN(C(=O)CC1CC1c1ccc(C(F)(F)F)cc1)C2 (single isomer, unassigned) [Compound I-20]	100 to 500	–	100 to 500
Cc1c2c(n(C)c(=O)c1C)CN(C(=O)CC1CC1c1cc(F)cc(F)c1)C2 (single isomer, unassigned) [Compound I-22]	> 2000	500 to 2000	> 2000
Cc1c2c(n(C)c(=O)c1C)CN(C(=O)CC1CC1c1cc(F)cc(F)c1)C2 (single isomer, unassigned) [Compound I-23]	< 100	< 100	< 100
Cc1c2c(n(C)c(=O)c1F)CN(C(=O)CC1CC1c1ccc(C(F)(F)F)cc1)C2 (single isomer, unassigned) [Compound I-25, 3-Fluoro-1,4-dimethyl-6-([trans-2-(2-(4-(trifluoromethyl)phenyl)cyclopropyl)]acetyl)-1,5,6,7-tetrahydro-2/I-pyrrolo[3,4-b]pyridin-2-one]	> 2000	100 to 500	500 to 2000
Cc1c2c(n(C)c(=O)c1F)CN(C(=O)CC1CC1c1cc(F)cc(F)c1)C2 (single isomer, unassigned) [Compound I-27]	< 100	< 100	< 100
Cc1c2c(n(C)c(=O)c1F)CN(C(=O)CC1CC1c1cc(F)cc(F)c1)C2 (single isomer, unassigned) [Compound I-28]	< 100	–	< 100
COCCc1ccc(C2CC2CC(=O)N2Cc3c(C)cc(=O)n(C)c3C2)cc1 (centres unmarked) [Compound I-11]	500 to 2000	–	100 to 500
Cc1cc(=O)n(C)c2c1CN(C(=O)CC1CC1c1ccc(C3COC3)cc1)C2 (centres unmarked) [Compound I-15]	500 to 2000	–	100 to 500
